The structures appear in SMILES notation.

The experiment concerns MOLM-13 cells. In words: Caspase cleavage assay (Caspase3, 7 activation). It counts as cell-based. Particulars: Homo sapiens, 16 h treatment, caspase substrate Z-DEVD-R110, read-out: c* Concentration at which 50% of the maximum signal was achieved (caspase activation). The procedure, abridged:
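Cells (30,000/well, RPMI) treated 16 h with compound or DMSO in triplicate, then given buffer with 10 mM HEPES pH 7.5, 2 mM EDTA, 0.1% CHAPS and 25 μM Z-DEVD-R110. Fluorescence read once signal stabilized; results given as percentage increase in apoptotic cells versus DMSO-treated control.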
As for `CN1CCN(c2ncc(Sc3ccc(N)nc3)c(OCc3ccc(F)c(Cl)c3)n2)CC1` [compound 154, 5-((4-((3-Chloro-4-fluorobenzyl)oxy)-2-(4-methylpiperazin-1-yl)pyrimidin-5-yl)thio)pyridin-2-amine], the EC50 was less than 200 nM. The value for `CN1CCN(c2ncc(Sc3ccc(N)nc3)c(OCc3ccc(F)c(Br)c3)n2)CC1` [compound 155, 5-((4-((3-Bromo-4-fluorobenzyl)oxy)-2-(4-methylpiperazin-1-yl)pyrimidin-5-yl)thio)pyridin-2-amine] was less than 200 nM; that for `CN1CCN(c2ncc(Sc3ccc(N)nc3)c(OCc3ccc(F)c(C(F)(F)F)c3)n2)CC1` [compound 156, 5-((4-((4-Fluoro-3-(trifluoromethyl)benzyl)oxy)-2-(4-methylpiperazin-1-yl)pyrimidin-5-yl)thio)pyridin-2-amine] was 200 to 400 nM. Take `COc1ccc(F)c(COc2nc(N3CCN(C)CC3)ncc2Sc2ccc(N)nc2)c1` [compound 157, 5-((4-((2-Fluoro-5-methoxybenzyl)oxy)-2-(4-methylpiperazin-1-yl)pyrimidin-5-yl)thio)pyridin-2-amine]: the EC50 is less than 200 nM. On to `COc1c(F)ccc(COc2nc(N3CCN(C)CC3)ncc2Sc2ccc(N)nc2)c1F` [compound 158, 5-((4-((2,4-Difluoro-3-methoxybenzyl)oxy)-2-(4-methylpiperazin-1-yl)pyrimidin-5-yl)thio)pyridin-2-amine], for which the EC50 was less than 200 nM. The value for `NC(=O)c1ccc(Sc2cnc(N3CCNCC3)nc2OCc2ccccc2)cc1` [compound 167, 4-((4-(Benzyloxy)-2-(piperazin-1-yl)pyrimidin-5-yl)thio)benzamide] was not below 1200 nM.

For `CC(=O)N1CCN(c2ncc(Sc3ccc(C(N)=O)cc3)c(OCc3ccccc3)n2)CC1` [compound 168, 4-((2-(4-Acetylpiperazin-1-yl)-4-(benzyloxy)pyrimidin-5-yl)thio)benzamide], the EC50 was not below 1200 nM. As to `C[C@@H]1CN(C)[C@@H](C)CN1c1ncc(Sc2ccc(C(N)=O)cc2)c(OCc2ccccc2)n1` [compound 182, 4-((4-(Benzyloxy)-2-((2R,5S)-2,4,5-trimethylpiperazin-1-yl)pyrimidin-5-yl)thio)benzamide], the EC50 was not below 1200 nM.

On to `CN(C)c1cccc(COc2nc(-c3cc[nH]c3)ncc2Sc2ccc(C(N)=O)cc2)c1` [compound 187, 4-((4-((3-(Dimethylamino)benzyl)oxy)-2-(1H-pyrrol-3-yl)pyrimidin-5-yl)thio)benzamide], for which the EC50 is 1000 to 1200 nM. For the compound `COc1cccc(COc2nc(N3CCN(C)C[C@H]3C)ncc2Sc2ccc(C(N)=O)cc2)c1` [compound 193, (R)-4-((2-(2,4-dimethylpiperazin-1-yl)-4-((3-methoxybenzyl)oxy)pyrimidin-5-yl)thio)benzamide], the EC50 was not below 1200 nM. As for `COc1cccc(COc2nc(N3CC4CC3CN4C)ncc2Sc2ccc(C(N)=O)cc2)c1` (centres unmarked) [compound 195], the EC50 was not below 1200 nM.

As to `C#CCN1CCN(c2ncc(Sc3ccc(C(N)=O)cc3)c(OCc3cccc(OC)c3)n2)CC1` [compound 198, 4-((4-((3-Methoxybenzyl)oxy)-2-(4-(prop-2-yn-1-yl)piperazin-1-yl)pyrimidin-5-yl)thio)benzamide], the EC50 is less than 200 nM. Consider `CN(C)[C@@H]1CCN(c2ncc(Sc3ccc(C(N)=O)cc3)c(OCc3cccc(OC(F)(F)F)c3)n2)C1` [compound 205, (R)-4-((2-(3-(Dimethylamino)pyrrolidin-1-yl)-4-((3-(trifluoromethoxy)benzyl)oxy)pyrimidin-5-yl)thio)benzamide], for which the EC50 was in the range of 400 to 1000 nM. For `CN(C)[C@@H]1CCN(c2ncc(Sc3ccc(C(N)=O)cc3)c(OCc3ccnc(N)c3)n2)C1` [compound 206, (R)-4-((4-((2-Aminopyridin-4-yl)methoxy)-2-(3-(dimethylamino)pyrrolidin-1-yl)pyrimidin-5-yl)thio)benzamide], the EC50 lay within 400 to 1000 nM.

The values above are taken from patent US10160729B2, “Hsp70 modulators and methods for making and using the same” (Memorial Sloan Kettering Cancer Center, priority 2014, dated 2018).
